Measurements from ChEMBL document CHEMBL1151391, “New Dihydrochalcones and Flavanones From Uvaria Angolensis” (1982).

How the values were obtained:
Format in all cases: functional
[1] = system: Staphylococcus aureus; experiment: Antimicrobial activity against Staphylococcus aureus
[2] = system: Bacillus subtilis; experiment: Antimicrobial activity against Bacillus subtilis
[3] = system: Mycolicibacterium smegmatis; experiment: Antimicrobial activity against Mycobacterium smegmatis

With `COc1c(C)c(O)c(Cc2ccccc2O)c(O)c1C(=O)CCc1ccccc1` [ANGUVETIN] the Activity [1] was 1.5 µg/mL, the Activity [2] was 0.2 µg/mL and the Activity [3] was 1.5 µg/mL.

`COc1c(C)c(O)c(C)c(O)c1C(=O)CCc1ccccc1` [ANGOLETIN] showed an Activity [1] of 12.5 µg/mL, an Activity [2] of 0.8 µg/mL and an Activity [3] of 6.3 µg/mL.
